Test: Elution test, paddle method of the Japanese Pharmacopoeia (elution rate by HPLC)
Format: physicochemical
Details: 37±0.5° C., 75 rpm; for Elution rate (%) 10 min: 10 min after addition; for Elution rate (%) 60 min: 60 min after addition; for Elution rate (%) 120 min: 120 min after addition
Procedure: The elution test was performed according to the paddle method in the Japanese Pharmacopoeia the 17th edition. Specifically, the test solution was set to 900 mL of the elution test solution No. 1 of the Japanese Pharmacopoeia, the temperature was set to 37±0.5° C., the rotation speed was set to 75 rpm, the sample to be tested was loaded, and then about 1 mL was sampled at regular intervals, filtered through a syringe filter, and then subjected to HPLC analysis to determine the peak area of the active pharmaceutical ingredient. The obtained area was compared to the peak area of the active pharmaceutical ingredient at the elution rate of 100% to calculate the elution rate (%).
The elution rate is a value obtained by performing HPLC analysis with 200 mg of an IBP crystal all dissolved in 900 mL of the test solution, taking the obtained area as the elution rate of 100%, adding the active pharmaceutical ingredient or the active pharmaceutical ingredient carrier to the eluate, then performing sampling overtime, performing filtering and HPLC analysis to calculate the area, and comparing the area to the value of the elution rate of 100%.
An active pharmaceutical ingredient carrier (corresponding to 200 mg of an active pharmaceutical ingredient) (0.66 g) was weighed, and subjected to the elution test according to the paddle method in the Japanese Pharmacopoeia elution test method using the elution test solution No. 1 (pH 1.2). The temperature of the test solution was 37±0.5° C., and the rotation speed was 75 rpm. Sampling was performed at 5 minutes, 10 minutes, 15 minutes, 30 minutes, and then once every 15 minutes until 120 minutes after addition of the active pharmaceutical ingredient carrier, the obtained sample was immediately filtered using a syringe filter, and the elution rate (%) was calculated as described above from the peak area of the active pharmaceutical ingredient by high performance liquid chromatography (HPLC) with a UV detector.
The elution test of an IBP crystal was performed in the same manner as described above except that an ibuprofen active pharmaceutical ingredient (IBP crystals) was used instead of the active pharmaceutical ingredient carrier.
In the same manner as in the elution test, the elution test of the obtained active pharmaceutical ingredient carrier or the ezetimibe active ingredient (an ETB crystal) was performed. This test was performed using the elution test solution No. 1 (pH 1.2) same as that described above and the elution test solution No. 2 (pH 6.8).
In the same manner as described above, the elution test of the obtained active pharmaceutical ingredient carrier or the celecoxib active ingredient (a CXB crystal) was performed using the elution test solution No. 1 (pH 1.2) or the elution test solution No. 2 (pH 6.8).
In the same manner as described above, the elution test of the obtained active pharmaceutical ingredient carrier or the azilsartan active ingredient (an AZL crystal) was performed using the elution test solution No. 1 (pH 1.2).

[1] = elution test solution No. 1 (pH 1.2), 900 mL
[2] = elution test solution No. 2 (pH 6.8)

## CCOc1nc2cccc(C(=O)O)c2n1Cc1ccc(-c2ccccc2-c2nc(=O)o[nH]2)cc1 [AZL crystal, azilsartan]
[1]
  Elution rate (%) 10 min: 0.58%
  Elution rate (%) 60 min: 4.7%
  Elution rate (%) 120 min: 7.4%

## O=C1[C@H](CC[C@H](O)c2ccc(F)cc2)[C@@H](c2ccc(O)cc2)N1c1ccc(F)cc1 [ETB crystal, ezetimibe]
[1]
  Elution rate (%) 10 min: 6.1%
  Elution rate (%) 60 min: 8.4%
  Elution rate (%) 120 min: 8.4%
[2]
  Elution rate (%) 10 min: 6.6%
  Elution rate (%) 60 min: 8.3%
  Elution rate (%) 120 min: 8.2%

## CC(C)Cc1ccc(C(C)C(=O)O)cc1 (stereo not drawn) [IBP crystal, ibuprofen]
[1]
  Elution rate (%) 10 min: 1.1%
  Elution rate (%) 60 min: 6.0%
  Elution rate (%) 120 min: 10.1%
